A short description of this series: Plasma and lymphatic pharmacokinetic analysis after IV bolus. Conditions: for clearance / AUC(0-inf) / Cmax / AUC(0-t) / half-life: rat, in vivo; for AUC(0-t): read-out: AUC(0-6h); for half-life: iv, IV bolus, read-out: t½, elimination (converted). The class given is in vivo, rats. On the procedure: For plasma and lymphatic pharmacokinetic analysis of T1249 in rats, T1249 was prepared as a sterile solution in bicarbonate buffer and administered as a single dose, bolus intravenous injection into the lateral tail vain at a dose of […]. Blood was collected from the animal from an in-dwelling jugular catheter. Samples were collected immediately after dosing and at 5, 15, and 30 minutes, and 1, 2, 4, and 6 hours after drug administration. For the analysis of lymphatic fluids, samples were taken immediately before dosing and every 20 minutes for the first six hours after dosing. Lymphatic fluid was collected from a catheter placed directly into the thoracic lymphatic duct as previously described (Kirkpatrick and Silver, 1970, The Journal of Surgical Research 10:147-158).

Like-named read-outs stand apart in the source and are kept apart here.

In the case of `CC[C@H](C)[C@H](NC(=O)[C@H](CCC(N)=O)NC(=O)[C@H](C)NC(=O)[C@H](CCC(N)=O)NC(=O)[C@H](CCC(=O)O)NC(=O)[C@H](CC(C)C)NC(=O)[C@H](CC(C)C)NC(=O)[C@H](C)NC(=O)[C@@H](NC(=O)[C@@H](NC(=O)[C@H](CCCCN)NC(=O)[C@H](CCC(N)=O)NC(=O)[C@H](CCC(=O)O)NC(=O)[C@H](Cc1c[nH]c2ccccc12)NC(=O)[C@H](CCC(=O)O)NC(=O)[C@H](CCC(N)=O)NC(=O)[C@H](Cc1c[nH]c2ccccc12)NC(C)=O)[C@@H](C)CC)[C@@H](C)O)C(=O)N[C@@H](CCC(N)=O)C(=O)N[C@@H](CCC(N)=O)C(=O)N[C@@H](CCC(=O)O)C(=O)N[C@@H](CCCCN)C(=O)N[C@@H](CC(N)=O)C(=O)N[C@@H](CCC(=O)O)C(=O)N[C@@H](Cc1ccc(O)cc1)C(=O)N[C@@H](CCC(=O)O)C(=O)N[C@@H](CC(C)C)C(=O)N[C@@H](CCC(N)=O)C(=O)N[C@@H](CCCCN)C(=O)N[C@@H](CC(C)C)C(=O)N[C@@H](CC(=O)O)C(=O)N[C@@H](CCCCN)C(=O)N[C@@H](Cc1c[nH]c2ccccc12)C(=O)N[C@@H](C)C(=O)N[C@@H](CO)C(=O)N[C@@H](CC(C)C)C(=O)N[C@@H](Cc1c[nH]c2ccccc12)C(=O)N[C@@H](CCC(=O)O)C(=O)N[C@@H](Cc1c[nH]c2ccccc12)C(=O)N[C@@H](Cc1ccccc1)C(N)=O` [T1249], the “time to equilibration of lymphatic system with the plasma reservoir” value (after IV administration) is reported as “within approximately one hour”. For the setting “Lymph”, the clearance (in general, the rate of elimination divided by the concentration) is 0.192 mL/min and the half-life was 1.3 ± 0.27 h. Besides, under “Lymph, averages exclude Rat #1”, the AUC(0-inf) (as a rule, total exposure, with the tail of the curve extrapolated) worked out at 449 µg·h/mL; the Cmax (as a rule, the peak of the concentration-time curve) is 155 µg/mL; the AUC(0-t) turned out to be 411 µg·h/mL. For the same compound, for the setting “Lymph, averages include Rat #1”, the AUC(0-inf) worked out at 390 µg·h/mL, the concentration peaked (Cmax) at 133 µg/mL and the AUC(0-t) is 348 µg·h/mL. Also, under “Plasma”, the AUC(0-inf) was 598 µg·h/mL, the highest concentration (Cmax) turned out to be 291 µg/mL, the clearance is 0.13 mL/min and the AUC(0-t) came to 506 µg·h/mL. The half-life (Plasma) was 2.6 ± 0.41 h.

For the origin of these results see patent US6656906B1, “Hybrid polypeptides with enhanced pharmacokinetic properties” (Trimeris, Inc., priority 1998, dated 2003).
